In US20250333431A1, “NEW CRYSTAL FORM OF TRISACCHARIDE” (SHANDONG HENGLU BIOTECH. CO., LTD., priority 2022, published 2025):

Columns and labels:
[1] = Moisture absorption measurement in a Constant Temperature & Humidity Chamber; assay type: physicochemical; details: for Moisture absorption rate, % / Weight gain after moisture absorption: after 5 days; for Weight gain after moisture absorption: about 1 g sample; for Appearance before experiment: before placing in chamber, open glass culture dish
Experimental: On the day before the constant temperature and moisture test, two dry glass culture dishes (without covers) are taken and placed in a Constant Temperature & Humidity Chamber at 25±1° C. and relative humidity of 75±2% for 4 h. The processed dishes are taken out and weighed accurately. The experiment is repeated until the weight is constant, and the data is recorded in Table 3.
Step 2. The raw material LNTII solid amorphous powder and the crystalline form B of LNTII obtained from Example 1 are weighed separately, placed in a glass culture dish without cover with constant weight in Step 1. The culture dish with samples added are placed in a Constant Temperature & Humidity Chamber at 25° C. and relative humidity of 75%. After 5 days, the samples are taken out to observe the appearance changes, weigh, and calculate the moisture absorption. The results are recorded in Table 2 and Table 3, respectively. The results of samples morphology before and after moisture absorption are shown in FIG. 5 and FIG. 6, respectively.
According to the method described herein in Example 9, the crystalline form B of LNTII prepared according to Examples 1-8 is placed in a glass culture dish without cover with constant weight in Step 1. The culture dish with samples added are placed in a Constant Temperature & Humidity Chamber at 25° C. and relative humidity of 75%. After 5 days, the samples are taken out to observe the appearance changes, weigh, and calculate the moisture absorption.

[2] = Stability study in a Constant Temperature & Humidity Chamber (LNTII content by HPLC and appearance); assay type: physicochemical; details: for Content, % (At the end of the 1st month): sealed with aluminum compound packing film; for Content, % (At the end of the 1st month) / Appearance (At the end of the 1st month): 1 month; for Appearance (At the end of the 1st month) / Content, % (At the end of the 2nd month) / Appearance (At the end of the 3rd month) / Content, % (At the end of the 3rd month): sealed; for Content, % (At the end of the 2nd month): 2 months; for Content, % (Day 0): LNTII content by HPLC
Experimental: In this invention, high-performance liquid chromatography (HPLC) is used to detect the content of LNTII under the following detection conditions:
Chromatographic column: Asahipak NH2P-504E 4.6 mm×250 mm, 5 μm, mobile phase: acetonitrile: water=65:35, flow rate: 1 mL/min, detector: UV-VIS detector, wavelength: 210 nm, column temperature: 30° C., sample volume: 10 μL, and the running time of 30 min.
An amount of 10 g of raw material before crystallization (i.e. LNTII amorphous powder obtained by spray-drying) and 10 g of crystalline form B of LNTII prepared by the method described herein in Examples 1-8 are weighed respectively, sealed with aluminum compound packing film, and placed in a Constant Temperature & Humidity Chamber under the test conditions of at constant temperature of 40° C. and relative humidity of 75%. Samples are taken at the end of the 1st month, the 2nd month, and the 3rd month to test the content of LNTII and observe its appearance.

[3] = 25° C., relative humidity 75%, Table 4, Examples 1-8
[4] = 40° C., relative humidity 75%, 3 months
[5] = 25° C., relative humidity 75%, Table 3, (weight gain/sample weight) × 100%

For `CC(=O)NC1C(O)[C@H](O)C(CO)O[C@H]1OC1C(O)[C@H](O[C@@H]2C(CO)OC(O)C(O)C2O)OC(CO)[C@@H]1O` (single isomer, unassigned) [Crystalline form B in Example 7, Lacto-N-triose II], the “Moisture absorption rate, %” value [1, 3] was 13.04%, the “Content, % (At the end of the 1st month)” value ([2]; 40° C., relative humidity 75%) was 93.77% and the “Appearance (At the end of the 1st month)” value ([2]; 40° C., relative humidity 75%) was “Off-white”. For the same compound, the “Content, % (At the end of the 2nd month)” value ([2]; 40° C., relative humidity 75%) was 93.81%, the “Appearance (At the end of the 3rd month)” value [2, 4] was “Off-white” and the “Content, % (At the end of the 3rd month)” value [2, 4] was 93.75%. The “Content, % (Day 0)” value [2] was 93.8%.

With `CC(=O)NC1C(O)[C@H](O)C(CO)O[C@H]1OC1C(O)[C@H](O[C@@H]2C(CO)OC(O)C(O)C2O)OC(CO)[C@@H]1O` (single isomer, unassigned) [Crystalline form B in Example 6, Lacto-N-triose II] the “Moisture absorption rate, %” value [1, 3] was 13.32%, the “Content, % (At the end of the 1st month)” value ([2]; 40° C., relative humidity 75%) was 92.43% and the “Appearance (At the end of the 1st month)” value ([2]; 40° C., relative humidity 75%) was “Off-white”. For the same compound, the “Content, % (At the end of the 2nd month)” value ([2]; 40° C., relative humidity 75%) was 92.39%, the “Appearance (At the end of the 3rd month)” value [2, 4] was “Off-white” and the “Content, % (At the end of the 3rd month)” value [2, 4] was 92.31%. The “Content, % (Day 0)” value [2] was 92.4%.

With `CC(=O)NC1C(O)[C@H](O)C(CO)O[C@H]1OC1C(O)[C@H](O[C@@H]2C(CO)OC(O)C(O)C2O)OC(CO)[C@@H]1O` (single isomer, unassigned) [Crystalline form B in Example 5, Lacto-N-triose II] the “Moisture absorption rate, %” value [1, 3] was 13.79%, the “Content, % (At the end of the 1st month)” value ([2]; 40° C., relative humidity 75%) was 93.56% and the “Appearance (At the end of the 1st month)” value ([2]; 40° C., relative humidity 75%) was “Off-white”. The “Content, % (At the end of the 2nd month)” value ([2]; 40° C., relative humidity 75%) was 93.48%, the “Appearance (At the end of the 3rd month)” value [2, 4] was “Off-white” and the “Content, % (At the end of the 3rd month)” value [2, 4] was 93.34%. The “Content, % (Day 0)” value [2] was 93.4%.

For `CC(=O)NC1C(O)[C@H](O)C(CO)O[C@H]1OC1C(O)[C@H](O[C@@H]2C(CO)OC(O)C(O)C2O)OC(CO)[C@@H]1O` (stereo partly shown) [Crystalline form B of LNTII, Lacto-N-triose II], the “Stability compared with amorphous powder (from appearance and moisture absorption)” value ([1]; 25° C., relative humidity 75%, 5 days, conclusion from Tables 2 and 3) was “better than that of amorphous powder”, the “Moisture absorption rate, %” value [1, 5] was 16.16% and the “Weight gain after moisture absorption” value ([1]; 25° C., relative humidity 75%) was 0.1617. For the same compound, the Appearance before experiment [1] was “Off-white”.

In the case of `CC(=O)NC1C(O)[C@H](O)C(CO)O[C@H]1OC1C(O)[C@H](O[C@@H]2C(CO)OC(O)C(O)C2O)OC(CO)[C@@H]1O` (single isomer, unassigned) [Crystalline form B in Example 1, Lacto-N-triose II], the “Moisture absorption rate, %” value [1, 3] was 14.02%, the “Content, % (At the end of the 1st month)” value ([2]; 40° C., relative humidity 75%) was 96.81% and the “Appearance (At the end of the 1st month)” value ([2]; 40° C., relative humidity 75%) was “Off-white”. For the same compound, the “Content, % (At the end of the 2nd month)” value ([2]; 40° C., relative humidity 75%) was 96.78%, the “Appearance (At the end of the 3rd month)” value [2, 4] was “Off-white” and the “Content, % (At the end of the 3rd month)” value [2, 4] was 96.76%. For the same compound, the “Content, % (Day 0)” value [2] was 96.8%.

In the case of `CC(=O)NC1C(O)[C@H](O)C(CO)O[C@H]1OC1C(O)[C@H](O[C@@H]2C(CO)OC(O)C(O)C2O)OC(CO)[C@@H]1O` (single isomer, unassigned) [Crystalline form B in Example 4, Lacto-N-triose II], the “Moisture absorption rate, %” value [1, 3] was 13.81%, the “Content, % (At the end of the 1st month)” value ([2]; 40° C., relative humidity 75%) was 96.13% and the “Appearance (At the end of the 1st month)” value ([2]; 40° C., relative humidity 75%) was “Off-white”. For the same compound, the “Content, % (At the end of the 2nd month)” value ([2]; 40° C., relative humidity 75%) was 96.06%, the “Appearance (At the end of the 3rd month)” value [2, 4] was “Off-white” and the “Content, % (At the end of the 3rd month)” value [2, 4] was 96.07%. The “Content, % (Day 0)” value [2] was 96.1%.

For `CC(=O)NC1C(O)[C@H](O)C(CO)O[C@H]1OC1C(O)[C@H](O[C@@H]2C(CO)OC(O)C(O)C2O)OC(CO)[C@@H]1O` (stereo partly shown) [LNTII amorphous powder, Lacto-N-triose II, reference compound], the “Moisture absorption rate, %” value [1, 5] was 29.47%, the “Weight gain after moisture absorption” value ([1]; 25° C., relative humidity 75%) was 0.2951 and the Appearance before experiment [1] was “Off-white powder”. The “Change of LNTII content during the stability experiment” value [2, 4] was “showed a decreasing trend”, the “Change of appearance/color during the stability experiment” value [2, 4] was “gradually changed to faint yellow” and the “Content, % (At the end of the 1st month)” value ([2]; 40° C., relative humidity 75%) was 91.01%. For the same compound, the “Appearance (At the end of the 1st month)” value ([2]; 40° C., relative humidity 75%) was “Off-white”, the “Content, % (At the end of the 2nd month)” value ([2]; 40° C., relative humidity 75%) was 90.86% and the “Content, % (At the end of the 3rd month)” value [2, 4] was 90.01%. For the same compound, the “Content, % (Day 0)” value [2] was 91.24%.

With `CC(=O)NC1C(O)[C@H](O)C(CO)O[C@H]1OC1C(O)[C@H](O[C@@H]2C(CO)OC(O)C(O)C2O)OC(CO)[C@@H]1O` (single isomer, unassigned) [Crystalline form B in Example 8, Lacto-N-triose II] the “Moisture absorption rate, %” value [1, 3] was 13.61%, the “Content, % (At the end of the 1st month)” value ([2]; 40° C., relative humidity 75%) was 96.48% and the “Appearance (At the end of the 1st month)” value ([2]; 40° C., relative humidity 75%) was “Off-white”. The “Content, % (At the end of the 2nd month)” value ([2]; 40° C., relative humidity 75%) was 96.49%, the “Appearance (At the end of the 3rd month)” value [2, 4] was “Off-white” and the “Content, % (At the end of the 3rd month)” value [2, 4] was 96.46%. The “Content, % (Day 0)” value [2] was 96.5%.

With `CC(=O)NC1C(O)[C@H](O)C(CO)O[C@H]1OC1C(O)[C@H](O[C@@H]2C(CO)OC(O)C(O)C2O)OC(CO)[C@@H]1O` (single isomer, unassigned) [Crystalline form B in Example 2, Lacto-N-triose II] the “Moisture absorption rate, %” value [1, 3] was 14.36%, the “Content, % (At the end of the 1st month)” value ([2]; 40° C., relative humidity 75%) was 96.44% and the “Appearance (At the end of the 1st month)” value ([2]; 40° C., relative humidity 75%) was “Off-white”. For the same compound, the “Content, % (At the end of the 2nd month)” value ([2]; 40° C., relative humidity 75%) was 96.42%, the “Appearance (At the end of the 3rd month)” value [2, 4] was “Off-white” and the “Content, % (At the end of the 3rd month)” value [2, 4] was 96.38%. For the same compound, the “Content, % (Day 0)” value [2] was 96.5%.

For `CC(=O)NC1C(O)[C@H](O)C(CO)O[C@H]1OC1C(O)[C@H](O[C@@H]2C(CO)OC(O)C(O)C2O)OC(CO)[C@@H]1O` (single isomer, unassigned) [Crystalline form B in Example 3, Lacto-N-triose II], the “Moisture absorption rate, %” value [1, 3] was 13.57%, the “Content, % (At the end of the 1st month)” value ([2]; 40° C., relative humidity 75%) was 96.92% and the “Appearance (At the end of the 1st month)” value ([2]; 40° C., relative humidity 75%) was “Off-white”. For the same compound, the “Content, % (At the end of the 2nd month)” value ([2]; 40° C., relative humidity 75%) was 96.93%, the “Appearance (At the end of the 3rd month)” value [2, 4] was “Off-white” and the “Content, % (At the end of the 3rd month)” value [2, 4] was 96.84%. The “Content, % (Day 0)” value [2] was 96.9%.
